Experimental data: ChEMBL document CHEMBL4321874 (J Med Chem, 2020)
Calls of active or inactive are those of the source. The calls are words filed in the database; no cut-off is given here.

Assays:
[1] = molecular target: T1, CDC7/DBF4 (Cell division cycle 7-related protein kinase/Activator of S phase kinase) (Homo sapiens, UniProt O00311); experiment: Inhibition of N-terminal GST-fused full-length human CDC7 (1 to 574 end residues)/DBF4 (1 to 674 residues) expressed in baculovirus expression system using MCM2 as substrate preincubated with enzyme for 10 mins prior to 1 uM ATP addition by HTRF transcreener ADP assay
[2] = molecular target: Cyclin-dependent kinase 2/cyclin E1 (Homo sapiens, UniProt P24941); experiment: Inhibition of N-terminal GST-tagged full-length human CDK2 (1 to 298 residues)/Cyclin E (1 to 410 residues) expressed in baculovirus expression system using histone H1 as susbtrate after 90 mins by Kinase-Glo luminescence assay
[3] = molecular target: Rho-associated protein kinase 1 (Homo sapiens, UniProt Q13464); experiment: Inhibition of N-terminal GST-tagged human ROCK1 catalytic domain (1 to 477 residues) expressed in baculovirus expression system using biotin-STK-substrate 2 as substrate preincubated with enzyme for 5 mins followed by ATP addition and measured after 2 hrs by TR-FRET assay
Homo sapiens [4] = organism: Homo sapiens; experiment: Selectivity index, ratio of IC50 for N-terminal GST-tagged full-length human CDK2 (1 to 298 residues)/Cyclin E (1 to 410 residues) expressed in baculovirus expression system to IC50 for N-terminal GST-fused full-length human CDC7 (1 to 574 end residues)/DBF4 (1 to 674 residues) expressed in baculovirus expression system
Homo sapiens [5] = organism: Homo sapiens; experiment: Selectivity index, ratio of IC50 N-terminal GST-tagged human ROCK1 catalytic domain (1 to 477 residues) expressed in baculovirus expression system to IC50 for N-terminal GST-fused full-length human CDC7 (1 to 574 end residues)/DBF4 (1 to 674 residues) expressed in baculovirus expression system
[6] = Drug metabolism in aqueous media assessed as formaldehyde adduct formation at 5 nmol after 30 mins in presence of excess formaldehyde by QTOF-UPLC analysis
[7] = Drug metabolism in reaction buffer containing 50 mM HEPES, 0.1 mM orthovanadate, 0.01% BSA, 10 mM MgCl2, and 1 mM DTT at pH 7.5
[8] = Drug metabolism in reaction buffer containing 25 mM HEPES, 0.1% Tween 20, 0.01% BSA, 10 mM Mg(OAc)2, and 1 mM DTT at pH 7.5
[9] = Drug metabolism in reaction buffer containing 20 mM HEPES, 10 mM Mg(OAc)2, and 1 mM DTT at pH 7.5
[10] = molecular target: T1, CDC7/DBF4 (Cell division cycle 7-related protein kinase/Activator of S phase kinase); experiment: Inhibition of N-terminal GST-fused full-length human CDC7 (1 to 574 end residues)/DBF4 (1 to 674 residues) expressed in baculovirus expression system using MCM2 as substrate in presence of 50 uM ATP by HTRF transcreener ADP assay
[11] = molecular target: T1, CDC7/DBF4 (Cell division cycle 7-related protein kinase/Activator of S phase kinase); experiment: Inhibition of N-terminal GST-fused full-length human CDC7 (1 to 574 end residues)/DBF4 (1 to 674 residues) expressed in baculovirus expression system using MCM2 as substrate preincubated with enzyme for 60 mins prior to 50 uM ATP addition by HTRF transcreener ADP assay
[12] = molecular target: T2, Cell division cycle 7-related protein kinase (Homo sapiens, UniProt O00311); experiment: Inhibition of CDC7 in human HeLa cells assessed as inhibition of MCM2 phosphorylation at Ser40 residue in human HeLa cells after 7 hrs by Western blot analysis; assay type: cell-based
[13] = molecular target: T2, Cell division cycle 7-related protein kinase; experiment: Binding affinity to CDC7 (unknown origin) assessed as equilibrium dissociation constant
COLO 205 = experiment: Antiproliferative activity against human COLO205 cells assessed as reduction in cell growth after 3 days by CellTiter-Glo luminescence assay; assay type: functional, cell-based; conditions: COLO 205, 72 h
[14] = molecular target: Dual specificity protein kinase CLK4 (Homo sapiens) (UniProt Q9HAZ1); experiment: Inhibition of kinase tracer 236 binding to recombinant full-length human GST-tagged CLK4 expressed in baculovirus expression system at 1000 nM by Lanthascreen Eu kinase binding assay relative to control
[15] = molecular target: Serine/threonine-protein kinase 17A (Homo sapiens) (UniProt Q9UEE5); experiment: Inhibition of kinase tracer 236 binding to recombinant full-length human GST-tagged DRAK1 expressed in baculovirus expression system at 1000 nM by Lanthascreen Eu kinase binding assay relative to control
[16] = molecular target: Dual specificity tyrosine-phosphorylation-regulated kinase 1A (Homo sapiens, UniProt Q13627); experiment: Inhibition of recombinant full-length human GST-tagged DYRK1A expressed in baculovirus expression system at 1000 nM by Z'-LYTE assay relative to control
[17] = molecular target: Dual specificity tyrosine-phosphorylation-regulated kinase 1B (Homo sapiens, UniProt Q9Y463); experiment: Inhibition of recombinant full-length human GST-tagged DYRK1B expressed in baculovirus expression system at 1000 nM by Z'-LYTE assay relative to control
[18] = molecular target: Myotonin-protein kinase (Homo sapiens) (UniProt Q09013); experiment: Inhibition of kinase tracer 236 binding to recombinant full-length human GST-tagged DMPK expressed in baculovirus expression system at 1000 nM by Lanthascreen Eu kinase binding assay relative to control
[19] = molecular target: Death-associated protein kinase 3 (Homo sapiens) (UniProt O43293); experiment: Inhibition of full-length human GST-tagged DAPK3 expresssed in baculovirus expression system at 1000 nM by Z'-LYTE assay relative to control
[20] = molecular target: CDK9/cyclin T1 (Homo sapiens) (UniProt O60563+P50750); experiment: Inhibition of full-length recombinant human His-tagged CDK9/Cyclin T1 expressed in baculovirus expression system at 1000 nM by Adapta kinase assay relative to control
[21] = molecular target: Glycogen synthase kinase-3 alpha (Homo sapiens) (UniProt P49840); experiment: Inhibition of kinase tracer 236 binding to N-terminal GST-tagged human full length GSK3alpha expressed in baculovirus expression system at 1000 nM by Lanthascreen Eu kinase binding assay relative to control
[22] = molecular target: Glycogen synthase kinase-3 beta (Homo sapiens) (UniProt P49841); experiment: Inhibition of recombinant full-length human His-tagged GSK3beta expressed in baculovirus expression system at 1000 nM by Z'-LYTE assay relative to control
[23] = molecular target: Dual specificity protein kinase CLK2 (Homo sapiens) (UniProt P49760); experiment: Inhibition of GST-tagged human recombinant CLK2 catalytic domain (137 to 498 residues) expressed in baculovirus expression system at 1000 nM by Z'-LYTE assay relative to control
[24] = molecular target: Homeodomain-interacting protein kinase 4 (Homo sapiens) (UniProt Q8NE63); experiment: Inhibition of recombinant full-length human N-terminal GST-tagged HIPK4 expressed in baculovirus expression system at 1000 nM by Z'-LYTE assay relative to control
[25] = molecular target: Casein kinase I isoform gamma-2 (Homo sapiens) (UniProt P78368); experiment: Inhibition of recombinant full-length human His-tagged CSNK1G2 expressed in baculovirus expression system at 1000 nM by Z'-LYTE assay relative to control
[26] = molecular target: CDK8/Cyclin C (Homo sapiens) (UniProt P49336+P24863); experiment: Inhibition of kinase tracer 236 binding to recombinant full-length human His-tagged CDK8/CyclinC expressed in baculovirus expression system at 1000 nM by Lanthascreen Eu kinase binding assay relative to control
[27] = molecular target: Death-associated protein kinase 1 (Homo sapiens, UniProt P53355); experiment: Inhibition of recombinant human N-terminal GST-tagged DAPK1 catalytic domain (1 to 363 residues) expressed in baculovirus expression system at 1000 nM by Adapta kinase assay relative to control
[28] = molecular target: Dual specificity protein kinase CLK1 (Homo sapiens, UniProt P49759); experiment: Inhibition of recombinant human GST-tagged CLK1 catalytic domain (129 to 484 residues) expressed in Escherichia coli at 1000 nM by Z'-LYTE assay relative to control
Mus musculus [29] = experiment: Increase in cyclin B1 expression in tumor in BALB/c mouse xenografted with human COLO205 cells at 100 mg/kg, po measured for 16 hrs post-treatment by Western blot analysis; assay type: functional, organism-based
Mus musculus [30] = experiment: Effect on PARP cleavage in tumor in BALB/c mouse xenografted with human COLO205 cells at 100 mg/kg, po measured for 16 hrs post-treatment by Western blot analysis; assay type: functional, organism-based
[31] = Drug metabolism assessed as (4bS)-2-(3-Methyl-1H-pyrazol-4-yl)-5,6,7,8-tetrahydropyrido-[1',2':3,4]imidazo[1,5-a]thieno[3,2-d]pyrimidin-12(4bH)-one formaldehyde adduct formation at 5 nmol after 30 mins in presence of excess formaldehyde by QTOF-UPLC analysis
Mus musculus [32] = experiment: In vivo inhibition of […] in BALB/c mouse xenografted with human COLO205 cells assessed as MCM2 phosphorylation at Ser 41 residue in tumor at 100 mg/kg, po measured for 16 hrs post-treatment by Western blot analysis; assay type: functional, organism-based

Structure (SMILES)	IC50 [1]	IC50 [2]	IC50 [3]	Ratio IC50 (Homo sapiens [4])	Ratio IC50 (Homo sapiens [5])	other results
Cc1n[nH]cc1-c1cc2nc([C@@H]3CC=CCN3)[nH]c(=O)c2s1	0.00053 µM	4.7 µM	0.34 µM	8900	640	–
Cc1n[nH]cc1-c1cc2nc([C@@H]3CCN3)[nH]c(=O)c2s1	0.0021 µM	6.9 µM	0.76 µM	3300	360	–
Cc1n[nH]cc1-c1cc2nc(C34CCC(CC3)N4)[nH]c(=O)c2s1	0.00016 µM	1.5 µM	0.096 µM	9400	600	Drug metabolism [6]: Metabolite not detected; Drug metabolism [7]: Metabolite not detected; Drug metabolism [8]: Metabolite not detected; Drug metabolism [9]: Metabolite not detected
Cc1n[nH]cc1-c1cc2nc([C@H]3CC4CCN3CC4)[nH]c(=O)c2s1	0.001 µM	> 10 µM	0.46 µM	–	–	–
Cc1[nH]ncc1-c1cc2nc([C@@H]3CC4CCN3CC4)[nH]c(=O)c2s1 [SIMUROSERTIB]	0.00026 µM	–	0.43 µM	–	–	IC50 [10]: 0.043 µM; IC50 [11]: 0.00054 µM; IC50 [12]: 0.017 µM; Kd [13]: 0.000424 µM
Cc1n[nH]cc1-c1cc2nc([C@@H]3CC4CCN3CC4)[nH]c(=O)c2s1 [SIMUROSERTIB]	–	–	–	–	–	EC50 (COLO 205): 0.081 µM; Drug metabolism [6]: Metabolite not detected; Drug metabolism [7]: Metabolite not detected; Drug metabolism [8]: Metabolite not detected; Drug metabolism [9]: Metabolite not detected
Cc1n[nH]cc1-c1cc2nc(C34CC(CN3)C4)[nH]c(=O)c2s1	0.00016 µM	2.7 µM	0.22 µM	–	–	IC50 [10]: 0.077 µM; IC50 [11]: 0.0021 µM; IC50 [12]: 0.13 µM; EC50 (COLO 205): 0.75 µM
Cc1n[nH]cc1-c1cc2nc([C@@H]3CCC(C)(C)N3)[nH]c(=O)c2s1	0.0019 µM	> 10 µM	1.5 µM	> 5300	790	–
Cc1n[nH]cc1-c1cc2nc([C@H]3CCCCN3)[nH]c(=O)c2s1	0.00091 µM	4.8 µM	0.37 µM	–	–	–
Cc1n[nH]cc1-c1cc2nc([C@@H]3CCCCN3)[nH]c(=O)c2s1	–	–	–	–	–	inhibition [14]: 100%; inhibition [15]: 99%; inhibition [16]: 98%; inhibition [17]: 96%; inhibition [18]: 95%; inhibition [19]: 92%; inhibition [20]: 90%; inhibition [21]: 89%; inhibition [22]: 89%; inhibition [23]: 88%; inhibition [24]: 87%; inhibition [25]: 87%; inhibition [26]: 87%; inhibition [27]: 85%; inhibition [28]: 81%; Activity (Mus musculus [29]): Active; Activity (Mus musculus [30]): inactive; Drug metabolism [31]: Metabolite detected; inhibition (Mus musculus [32]): inactive
Cc1n[nH]cc1-c1cc2nc([C@@H]3CCCCCN3)[nH]c(=O)c2s1	0.0012 µM	2.8 µM	0.45 µM	2300	380	–
Cc1n[nH]cc1-c1cc2nc([C@@H]3CCCN3)[nH]c(=O)c2s1	0.00071 µM	3.9 µM	0.36 µM	5500	510	–

More lines, main results first:

IC50 [1]	IC50 [2]	IC50 [3]	Ratio IC50 (Homo sapiens [4])	Ratio IC50 (Homo sapiens [5])	Structure (SMILES)	other results
0.0013 µM	3.7 µM	0.63 µM	2800	480	Cc1n[nH]cc1-c1cc2nc([C@@H]3C[C@H](C)CN3)[nH]c(=O)c2s1	–
0.0098 µM	9.9 µM	0.27 µM	1000	28	Cc1n[nH]cc1-c1cc2nc([C@]3(C)CCCN3)[nH]c(=O)c2s1	–
0.00043 µM	9.5 µM	0.53 µM	–	–	O=c1[nH]c([C@@H]2CCCCN2)nc2cc(-c3c[nH]nc3C(F)(F)F)sc12	IC50 [10]: 0.072 µM; IC50 [11]: 0.00072 µM; IC50 [12]: 0.041 µM; EC50 (COLO 205): 0.23 µM
0.00061 µM	0.62 µM	0.13 µM	1000	210	Cc1n[nH]cc1-c1cc2nc([C@H]3NCC[C@@H]3C)[nH]c(=O)c2s1	–
0.0019 µM	> 10 µM	0.16 µM	> 5300	84	Cc1n[nH]cc1-c1cc2nc([C@@H]3CCCN3C)[nH]c(=O)c2s1	–
